Assay results as given in US20160046592A1, “PHARMACEUTICAL COMPOSITION FOR THE TREATMENT OF DIABETES” (Ajinomoto Co., Inc., priority 2013, published 2016).
Where a name gives a salt, the structure may show the parent alone.

What follows are compounds tested against T1, PPAR-α (Homo sapiens, UniProt Q07869) (assay: Measurement of PPAR-α activity (GAL4 luciferase reporter assay in CV-1 cells)). Conditions: 100(A/B): A = maximum PPAR-α activity of test compound at 3, 10, 30 and 100 μM, B = activity of the compound of WO/2011/058154 at 100 μM, 18 to 20 hours.
T1 construct: expressed in transfected cells; host or cells: CV-1 (African green monkey kidney)
T1 sequence (Q07869 167-468): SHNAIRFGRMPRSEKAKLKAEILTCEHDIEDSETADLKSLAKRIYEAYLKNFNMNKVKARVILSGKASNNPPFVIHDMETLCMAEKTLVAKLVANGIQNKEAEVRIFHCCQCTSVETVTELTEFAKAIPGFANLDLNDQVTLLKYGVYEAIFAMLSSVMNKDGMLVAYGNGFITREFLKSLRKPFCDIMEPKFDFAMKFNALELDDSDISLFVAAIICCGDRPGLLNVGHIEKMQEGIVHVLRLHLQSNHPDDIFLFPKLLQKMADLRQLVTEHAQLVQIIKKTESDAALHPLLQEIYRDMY
Format: cell-based
Experimental: The PPAR-α activity was measured according to the published article (THE JOURNAL OF BIOLOGICAL CHEMISTRY Vol. 270, No 0.22: 12953-12956, 1995).
Plasmids used for the PPAR-α activity measurement were constructed as follows. A luciferase expression plasmid (UAS×5-TK-Luc) used was obtained by introducing a sequence in which five yeast GAL4-binding sequences are linked in tandem into a portion upstream of a thymidine kinase promoter of pTAL-Luc (Takara Bio Inc., 6252-1). A PPAR-α receptor expression plasmid (hGR-GAL4-hPPARα) used was obtained by introducing a human GR N-terminal region (1-76aa), a yeast GAL4 DNA-binding region (1-147aa), and a PPARα ligand-binding region (167-468aa) between Not I and Sal I sites of pExchange-1 Core Vector (Invitrogen, 211176).
A reporter assay was conducted by the following method using African green monkey kidney-derived CV-1 cells. The CV-1 cells were seeded in a 96-well plate (Thermo Fisher Scientific K.K., 4938) at 2×10^4 cells/well by using a 10% FBS-containing DMEM (NACALAI TESQUE, INC., 0845874) medium. After culturing under conditions of 37° C. and 5% CO2 for 2 hours, the cells were transfected with the plasmids. The transfection was conducted by using Lipofectamine LTX (Invitrogen, 15338-100) according to the attached manual. The plasmid solution was prepared by adding a mixture solution of the luciferase expression plasmid and the PPAR-α receptor expression plasmid to OPTI-MEM I (Invitrogen, 11058-021). After the transfection, the test compound was added, and the cells were cultured at 37° C. in the presence of 5% CO2 for 18 to 20 hours. After the culturing, the luciferase activity was measured with Luminescensor JNR (ATTO) by using Bright-Glo (Promega, E2620).
The fold induction of PPAR-α by each test compound was calculated by the following method. A relative fold induction (%) of PPAR-α by the test compound was defined as 100 (A/B), where A represents the maximum value of the PPAR-α activities of the test compound at 3 μM, 10 μM, 30 μM, and 100 μM, and B represents the PPAR-α activity of the compound of WO/2011/058154 at 100 μM.

Row | Relative fold induction (%) of PPAR α | Compound
1 | 10% | NC(=O)C1CC[C@@H](C(=O)O)N1C(=O)c1cccc(COc2ccc(-c3cc(F)c(F)c4ccoc34)cc2)c1 (single isomer, unassigned) [Example 4, (2S,5R) or (2S,5S)-5-Carbamoyl-1-[3-[[4-(4,5-difluorobenzofuran-7-yl)phenoxy]methyl]benzoyl]pyrrolidine-2-carboxylic Acid]
2 | 7.8% | CSc1cc(F)c(F)cc1-c1ccc(OCc2cccc(C(=O)N3C(C(N)=O)CC[C@H]3C(=O)O)c2)cc1 (single isomer, unassigned) [Example 58, (2S,5S) or (2S,5R)-5-Carbamoyl-1-[3-[[4-(4,5-difluoro-2-methylsulfanyl-phenyl)phenoxy]methyl]benzoyl]pyrrolidine-2-carboxylic Acid]

Same assay, conditions: 100(A/B): A = maximum PPAR-α activity of test compound at 3, 10, 30 and 100 μM, B = activity of the compound of WO/2011/058154 at 100 μM, 18 to 20 hours, read-out: Relative fold induction (%) of PPAR α

Row | Emax | Compound
3 | 23% | CSc1cc(F)c(F)cc1-c1ccc(OCc2cccc(C(=O)N(CC(=O)O)Cc3noc(C)n3)c2)cc1 [Example 69, 2-[[3-[[4-(4,5-Difluoro-2-methylsulfanyl-phenyl)phenoxy]methyl]benzoyl]-[(5-methyl-1,2,4-oxadiazol-3-yl)methyl]amino]acetic Acid]
4 | 7.3% | CSc1cc(F)c(F)cc1-c1ccc(OCc2cccc(C(=O)N(CC(=O)O)Cc3cnco3)c2)cc1 [Example 47, 2-[[3-[[4-(4,5-Difluoro-2-methylsulfanyl-phenyl)phenoxy]methyl]benzoyl]-(oxazol-5-ylmethyl)amino]acetic Acid]
5 | 7% | COC[C@H]1CC[C@@H](C(=O)O)N1C(=O)c1cccc(COc2ccc(-c3cc(F)c(F)cc3SC)cc2)c1 [Example 65, (2S,5R)-1-[3-[[4-(4,5-Difluoro-2-methylsulfanyl-phenyl)phenoxy]methyl]benzoyl]-5-(methoxymethyl)pyrrolidine-2-carboxylic Acid]
6 | 10% | CSc1cc(F)c(F)cc1-c1ccc(OCc2cccc(C(=O)N3CC[C@H](O)[C@H]3C(=O)O)c2)cc1 [Example 5, (2S,3S)-1-[3-[[4-(4,5-Difluoro-2-methylsulfanyl-phenyl)phenoxy]methyl]benzoyl]-3-hydroxy-pyrrolidine-2-carboxylic Acid]
7 | 65% | CO[C@H]1CCN(C(=O)c2cccc(COc3ccc(-c4cc(F)c(F)c5ccoc45)cc3)c2)[C@@H]1C(=O)O [Example 78, (2S,3S)-1-[3-[[4-(4,5-Difluorobenzofuran-7-yl)phenoxy]methyl]benzoyl]-3-methoxy-pyrrolidine-2-carboxylic Acid]
8 | 25% | CSc1cc(F)c(F)cc1-c1ccc(OCc2cccc(C(=O)N(CCNC(C)=O)CC(=O)O)c2)cc1 [Example 44, 2-[2-Acetamidoethyl-[3-[[4-(4,5-difluoro-2-methylsulfanyl-phenyl)phenoxy]methyl]benzoyl]amino]acetic Acid]
9 | 38% | N#CCCN(CC(=O)O)C(=O)c1cccc(COc2ccc(-c3cc(F)c(F)c4ccoc34)cc2)c1 [Example 75, 2-[2-Cyanoethyl-[3-[[4-(4,5-difluorobenzofuran-7-yl)phenoxy]methyl]benzoyl]amino]acetic Acid]
10 | 6.7% | CSc1cc(F)c(F)cc1-c1ccc(OCc2cccc(C(=O)N(CC(N)=O)CC(=O)O)c2)cc1 [Example 10, 2-[(2-Amino-2-oxo-ethyl)-[3-[[4-(4,5-difluoro-2-methylsulfanyl-phenyl)phenoxy]methyl]benzoyl]amino]acetic Acid]
11 | 7.1% | CSc1cc(F)c(F)cc1-c1ccc(OCc2cccc(C(=O)N(CCCS(C)(=O)=O)CC(=O)O)c2)cc1 [Example 32, 2-[[3-[[4-(4,5-Difluoro-2-methylsulfanyl-phenyl)phenoxy]methyl]benzoyl]-(3-methylsulfonylpropyl)amino]acetic Acid]
12 | 7.5% | Cc1coc2c(-c3ccc(OCc4cccc(C(=O)N(CCS(C)(=O)=O)CC(=O)O)c4)cc3)cc(F)c(F)c12 [Example 14, 2-[[3-[[4-(4,5-Difluoro-3-methyl-benzofuran-7-yl)phenoxy]methyl]benzoyl]-(2-methylsulfonylethyl)amino]acetic Acid]
13 | 11% | CSc1cc(F)c(F)cc1-c1ccc(OCc2cccc(C(=O)N(CC(=O)O)Cc3ccnn3C)c2)cc1 [Example 55, 2-[[3-[[4-(4,5-Difluoro-2-methylsulfanyl-phenyl)phenoxy]methyl]benzoyl]-[(2-methylpyrazol-3-yl)methyl]amino]acetic Acid]
14 | 8.7% | CSc1cc(F)c(F)cc1-c1ccc(OCc2cccc(C(=O)N(CC(=O)O)Cc3ccn[nH]3)c2)cc1 [Example 54, 2-[[3-[[4-(4,5-Difluoro-2-methylsulfanyl-phenyl)phenoxy]methyl]benzoyl]-(1H-pyrazol-5-ylmethyl)amino]acetic Acid]
15 | 13% | CSc1cc(F)c(F)cc1-c1ccc(OCc2cccc(C(=O)N(CC(=O)O)CC(=O)N3CCCC3)c2)cc1 [Example 25, 2-[[3-[[4-(4,5-Difluoro-2-methylsulfanyl-phenyl)phenoxy]methyl]benzoyl]-(2-oxo-2-pyrrolidin-1-yl-ethyl)amino]acetic Acid]
16 | 13% | CSc1cc(F)c(F)cc1-c1ccc(OCc2cccc(C(=O)N(CC(=O)O)Cc3ccccn3)c2)cc1 [Example 20, 2-[[3-[[4-(4,5-Difluoro-2-methylsulfanyl-phenyl)phenoxy]methyl]benzoyl]-(2-pyridylmethyl)amino]acetic Acid Trifluoroacetate]
17 | 7.4% | CN(C)C(=O)CN(CC(=O)O)C(=O)c1cccc(COc2ccc(-c3cc(F)c(F)c4ccoc34)cc2)c1 [Example 11, 2-[[3-[[4-(4,5-Difluorobenzofuran-7-yl)phenoxy]methyl]benzoyl]-[2-(dimethylamino)-2-oxo-ethyl]amino]acetic Acid]
18 | 7.3% | CSc1cc(F)c(F)cc1-c1ccc(OCc2cccc(C(=O)N(CC(=O)O)CC3CCOCC3)c2)cc1 [Example 34, 2-[[3-[[4-(4,5-Difluoro-2-methylsulfanyl-phenyl)phenoxy]methyl]benzoyl]-(tetrahydropyran-4-ylmethyl)amino]acetic Acid]
19 | 12% | CS(=O)(=O)NCCN(CC(=O)O)C(=O)c1cccc(COc2ccc(-c3cc(F)c(F)c4ccoc34)cc2)c1 [Example 16, 2-[[3-[[4-(4,5-Difluorobenzofuran-7-yl)phenoxy]methyl]benzoyl]-[2-(methanesulfonamido)ethyl]amino]acetic Acid]
20 | 13% | COC1CCN(C(=O)c2cccc(COc3ccc(-c4cc(F)c(F)cc4SC)cc3)c2)C1C(=O)O (stereo in doubt) [Example 33, (2S,3S)-1-[3-[[4-(4,5-Difluoro-2-methylsulfanyl-phenyl)phenoxy]methyl]benzoyl]-3-methoxy-pyrrolidine-2-carboxylic Acid]
21 | 4.6% | CSc1cc(F)c(F)cc1-c1ccc(OCc2cccc(C(=O)N(CC(=O)O)CC3CCS(=O)(=O)C3)c2)cc1 (stereo not drawn) [Example 46, 2-[[3-[[4-(4,5-Difluoro-2-methylsulfanyl-phenyl)phenoxy]methyl]benzoyl]-[(1,1-dioxothiolan-3-yl)methyl]amino]acetic Acid]
22 | 8.2% | CSc1cc(F)c(F)cc1-c1ccc(OCc2cccc(C(=O)N(CC(=O)O)Cc3ccncn3)c2)cc1 [Example 53, 2-[[3-[[4-(4,5-Difluoro-2-methylsulfanyl-phenyl)phenoxy]methyl]benzoyl]-(pyrimidin-4-ylmethyl)amino]acetic Acid]
23 | 22% | CSc1cc(F)c(F)cc1-c1ccc(OCc2cccc(C(=O)N3C[C@H](O)C[C@H]3C(=O)O)c2)cc1 [Example 29, (2S,4R)-1-[3-[[4-(4,5-Difluoro-2-methylsulfanyl-phenyl)phenoxy]methyl]benzoyl]-4-hydroxy-pyrrolidine-2-carboxylic Acid]
24 | 8% | CNS(=O)(=O)CCN(CC(=O)O)C(=O)c1cccc(COc2ccc(-c3cc(F)c(F)cc3SC)cc2)c1 [Example 56, 2-[[3-[[4-(4,5-Difluoro-2-methylsulfanyl-phenyl)phenoxy]methyl]benzoyl]-[2-(methylsulfamoyl)ethyl]amino]acetic Acid]
